Here are results for 1 compound from PMC3605511, “Tumor P-Glycoprotein Correlates with Efficacy of PF-3758309 in in vitro and in vivo Models of Colorectal Cancer” (Frontiers in Pharmacology, 2013).

Data set [1] can be described thus: MDCKII-LE permeability assay. The class given is in vitro ADME. The note with it: dog, MDCK; MDCKII-LE cells, mean of two replicates. How it is done: (§1) Permeability and transporter substrate assays were performed as previously published (Feng et al., [2008]; Callegari et al., [2011]; Di et al., [2011]). Permeability assays were conducted in MDCKII-LE cells, which were generated by isolation of a subpopulation of cells with low expression of endogenous P-gp (Feng et al., [2008]; Callegari et al., [2011]; Di et al., [2011]). The use of MDCKII-LE cells are used to measure the passive permeability of compounds in place of MDCK wild-type or Caco-2 cells since both MDCK wild-type and Caco-2 cells are known to have some level of endogenous transporter expression which can affect the permeability measurement. P-gp efflux was determined in MDR1-MDCK cells and BCRP efflux was measured in BCRP-MDCKII-LE cells.
(§2) MDCKII-LE, MDR1-MDCK, and BCRP-MDCKII-LE transwell assays were performed to determine the permeability and transporter efflux of PF-309 in vitro (Table 1). The permeability of PF-309 was determined to be 0.9 × 10^−6 cm/s in MDCKII-LE cells (mean of two replicates is presented). As previously described (Feng et al., [2008]), in MDCKII-LE cells a compound with a donor to receiver (A → B) flux of <5 × 10^−6 cm/s is classified as having low permeability. Compounds with A → B flux of 5–15 × 10^−6 cm/s are classified as moderately permeable and compounds >15 × 10^−6cm/s are considered to be highly permeable.

The test system of another data set is MDCKII-LE cells. Briefly: MDCKII-LE permeability assay. It is filed as in vitro ADME. The note with it: MDCKII-LE; A → B <5 × 10^−6 cm/s low, 5–15 moderate, >15 high. The method, then: as §1, §2
The test system of the next data set is HCT15. The experiment in a line: Cell proliferation assay, HCT15. The class given is cell-based. The note with it: Homo sapiens, HCT-15. How it is done: (§3) Cytotoxic/proliferation effects were determined using the sulforhodamine B (SRB) assay (Skehan et al., [1990]) or by resazurin. Briefly, cells in logarithmic growth phase were transferred to 96 well flat bottom plates with lids. One-hundred microliter cell suspensions containing 1500–5000 viable cells were plated into each well and incubated overnight prior to exposure with increasing concentrations of PF-309 for 3–5 days, dependent upon cell type. Media was removed and cells were fixed with cold 10% trichloroacetic acid for 30 min at 4°C. Cells were then washed with water and stained with 0.4% SRB (Fisher Sci., Pittsburgh, PA, USA) for 30 min at room temperature, washed again with 1% acetic acid, followed by stain solubilization with 10 mM tris at room temperature. The plate was then read on a plate reader (Biotek Synergy 2, Winooski, VT, USA) set at an absorbance wavelength of 565 nm. Cell proliferation curves were derived from the raw absorbance (OD) data.
(§4) Since PF-309 appeared to be a strong P-gp and BCRP substrates, we sought to evaluate if the transporters influenced sensitivity in vitro. We evaluated the sensitivity of CRC cell lines to PF-309 treatment in a panel of 27 lines. Cells were exposed to PF-309 at a range of concentrations for 72 h and cell content measured by SRB assay (see Pitts et al., [2013]). […]

The test system of a further data set is T84. The experiment in a line: Cell proliferation assay, T84. The note with it: Homo sapiens; T84, PF-309 alone, 72 h; 1 uM was the maximum concentration used. It is filed as cell-based. How it is done:
as §3, §4

Another data set concerns SW480. The experiment in a line: Cell proliferation assay, SW480. The following applies: Homo sapiens; SW480, 72 h, SRB assay. The class given is cell-based. The method, then: as §3, §4
(In general: Sulforhodamine B stains cellular protein and so reports cell mass.)

The next data set concerns DLD1 PgP_KD2. The experiment in a line: Proliferation after shRNA knockdown of P-gp, DLD1 PgP_KD2. It is filed as cell-based. The following applies: Homo sapiens, DLD-1; DLD1 PgP_KD2 :50, P-gp shRNA knockdown. How it is done:
as §3
The pGIPZ Pgp-specific shRNA expression cassettes, along with control shRNA plasmids including the original pGIPZ vector were purchased from Open Biosystems (Birmingham, AL, USA). […] Successful knockdown of specific genes and gene products was confirmed by semi-quantitative RT-PCR and immunoblotting with specific antibodies. […]

In data set [2] the test system is Colo201 cell line xenograft. The experiment in a line: CRC cell line xenograft efficacy, Colo201. The note with it: 25 mg/kg orally twice daily, 14–28 days, end of study tumor volumes. The class given is in vivo, mice. How it is done: For cell line xenografts, CRC cells were harvested in exponential phase growth and resuspended in a 1:1 mixture of serum-free RPMI 1640 and Matrigel (BD Biosciences). Five to ten million cells per mouse were injected subcutaneously into the flank using a 23-gauge needle. Mice were monitored daily for signs of toxicity and were weighed twice weekly. Tumor size was evaluated twice per week by caliper measurements using the following formula: tumor volume = length × width^2 × 0.52. When tumors reached 200–300 mm^3 mice were randomized into two groups with at least 10 tumors per group. Mice were then treated for 14–28 days (until control tumor volume reach ∼1500 mm^3) with either vehicle control (0.5% methylcellulose), or PF-3758309 (25 mg/kg) twice daily by oral gavage.
Human tumor xenograft models were used to evaluate the efficacy of PF-309 in vivo. Eleven different CRC cell line tumor xenografts were treated with 25 mg/kg PF-309 twice daily by oral gavage for 14–28 days (until control tumor volumes reached ∼1500 mm^3). Tumor volumes were measured throughout the study and the % growth inhibition was calculated from the average end of study tumor volumes by:
% Growth Inhibition= (average control volume−average treated volume)/average control volume×100%

Like-named read-outs stand apart in the source and are kept apart here.

Regarding `Cc1nc(Nc2n[nH]c3c2CN(C(=O)N[C@H](CN(C)C)c2ccccc2)C3(C)C)c2sccc2n1` [PF-309], the Papp A→B (usually the apparent permeability from the apical to the basolateral side of a cell layer) in data set [1] is 0.9 ×10⁻⁶ cm/s. Besides, the permeability classification entry with MDCKII-LE cells is reported as “poorly permeable”. Further, the IC50 (commonly the midpoint of a concentration-inhibition curve) with HCT15 (HCT15, 72 h, SRB assay, read-out: IC50) was above 1000 nM; in the data set with HCT15 (HCT15, PF-309 alone, 72 h (Table 2), read-out: PF-309 IC50), 780 nM; in the data set on T84, above 1000 nM; with SW480, 10.1 ± 2.5 nM; in the data set with DLD1 PgP_KD2, 18 nM. Further, in data set [2], the “% Growth inhibition” value was 45%.
